# Results: PubChem BioAssay (NCI)
#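 The compound was tested at five concentrations on cells cultured in 96-well plates, with a 48-hour exposure period. At the GI50, growth is halved. At the TGI there is no net growth.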
# How the values were obtained:
# Test in all cases: growth of human tumour cells (NCI), 48 h
# OVCAR-8 ovarian = test system: OVCAR-8 ovarian
# SK-MEL-2 melanoma = test system: SK-MEL-2 melanoma
# RXF 393 renal = test system: RXF 393 renal
# UO-31 renal = test system: UO-31 renal
# TK-10 renal = test system: TK-10 renal
# A549 NSCLC = test system: A549 NSCLC
# K-562 leukemia = test system: K-562 leukemia
# SK-MEL-5 melanoma = test system: SK-MEL-5 melanoma
# OVCAR-3 ovarian = test system: OVCAR-3 ovarian
# SNB-19 CNS = test system: SNB-19 CNS
Compound,GI50 (OVCAR-8 ovarian) [µM],TGI (OVCAR-8 ovarian) [µM],GI50 (SK-MEL-2 melanoma) [µM],TGI (SK-MEL-2 melanoma) [µM],GI50 (RXF 393 renal) [µM],TGI (RXF 393 renal) [µM],GI50 (UO-31 renal) [µM],TGI (UO-31 renal) [µM],GI50 (TK-10 renal) [µM],TGI (TK-10 renal) [µM],GI50 (A549 NSCLC) [µM],TGI (A549 NSCLC) [µM],GI50 (K-562 leukemia) [µM],TGI (K-562 leukemia) [µM],GI50 (SK-MEL-5 melanoma) [µM],GI50 (OVCAR-3 ovarian) [µM],TGI (OVCAR-3 ovarian) [µM],GI50 (SNB-19 CNS) [µM],TGI (SNB-19 CNS) [µM],TGI (SK-MEL-5 melanoma) [µM]
NC(=O)c1cc(Cl)ccc1NC(=O)/C=C/c1ccccc1,4.7,> 100,3.95,> 39.3,2.19,6.53,10.1,> 100,7.31,> 95.1,4.18,> 100,0.806,> 23.1,0.787,1.3,2.89,4.47,> 55.6,
COc1cc(/C=C/c2ccc(OC)c(O)c2)cc(OC)c1,,36.1,,29.8,,3.88,,41.9,,91.4,,33.3,,8.64,,,4.88,,24.1,14.4
c1ccc(C2N3CCCCC3[C@@H]3c4[nH]c5ccccc5c4CCN23)nc1 (stereo partly drawn),,> 100,,> 100,,> 100,,> 100,,> 100,,> 100,,> 100,,,> 100,,> 100,> 100
Cc1ccc(NC(=O)c2cccc(C(C)(C)C#N)c2)cc1Nc1ccc2ncn(C)c(=O)c2c1,4.96,> 100,0.0692,8.69,6.87,> 73.4,0.475,> 100,2.9,> 100,8.16,> 100,0.484,> 79.3,1.26,13.4,> 100,5.48,> 100,20
N#Cc1cc(-c2cc3ccccc3o2)oc1N,4.32,> 100,1.29,4.49,3.96,13.5,3.72,18.2,6.61,34.8,3.7,> 100,3.58,> 100,1.52,1.98,6.38,4.07,31.7,3.78
O=C(Nc1ccccc1-c1nc2ccccc2[nH]c1=O)c1ccccc1,,66.1,,56,,43.6,,38.3,,31.6,,69.9,,> 100,,,44,,60.1,> 100
CCc1nc(N)nc(N)c1-c1ccc(NC)c([N+](=O)[O-])c1,,> 100,,> 92.5,,> 93.3,,> 100,,> 100,,> 100,,> 25.8,,,> 100,,> 80.4,29.1
CN1CCN(CCCNc2nc3ccc(Oc4ccc(NC(=O)Nc5cc(C(F)(F)F)ccc5F)cc4)cc3[nH]2)CC1,5.27,13.5,4.64,8.66,4.07,9.17,> 25,> 25,3.93,9.07,4.31,8.08,4.84,11.1,3.66,4.49,9.65,3.99,7.42,7.01
Nc1ccccc1C#C/C=C\C#Cc1ccccc1N,28.1,74.7,16.3,60.7,16.8,47.6,11.4,34.1,8.33,36.1,41.5,> 100,0.583,14.2,1.95,1.72,9.1,48.9,> 100,17.5
COc1ccc2[nH]c3c4[nH]c5ccc(OC)cc5c4c4c(c3c2c1)C(=O)NC4=O,> 13.2,> 25,12.2,> 25,,> 15.4,0.654,> 25,> 7.63,> 25,> 9.75,> 25,> 6.63,> 25,> 22,> 11.2,> 25,> 25,> 25,> 25
